The values that follow come from article PMC6934184, “Selective DNA-PKcs inhibition extends the therapeutic index of localized radiotherapy and chemotherapy” (The Journal of Clinical Investigation, 2019).

A word on the inhibition: it is the percentage by which the read-out fell short of the control. Read a low inhibition as little suppression.

The assay addresses T1, PTK2B (FAK2) (Homo sapiens, UniProt Q14289).
T1 construct: purchased Thermo Fisher Scientific (Life Technologies) SelectScreen
Briefly: SelectScreen Z'LYTE. It counts as biochemical. In outline: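 SelectScreen broad panel; activity (Z'LYTE, Adapta) plus binding formats. ATP: Km app for CSF1R Z'LYTE; 10 for CAMK1 Adapta. Readout = % per kinase.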

T1 sequence (Q14289 whole entry): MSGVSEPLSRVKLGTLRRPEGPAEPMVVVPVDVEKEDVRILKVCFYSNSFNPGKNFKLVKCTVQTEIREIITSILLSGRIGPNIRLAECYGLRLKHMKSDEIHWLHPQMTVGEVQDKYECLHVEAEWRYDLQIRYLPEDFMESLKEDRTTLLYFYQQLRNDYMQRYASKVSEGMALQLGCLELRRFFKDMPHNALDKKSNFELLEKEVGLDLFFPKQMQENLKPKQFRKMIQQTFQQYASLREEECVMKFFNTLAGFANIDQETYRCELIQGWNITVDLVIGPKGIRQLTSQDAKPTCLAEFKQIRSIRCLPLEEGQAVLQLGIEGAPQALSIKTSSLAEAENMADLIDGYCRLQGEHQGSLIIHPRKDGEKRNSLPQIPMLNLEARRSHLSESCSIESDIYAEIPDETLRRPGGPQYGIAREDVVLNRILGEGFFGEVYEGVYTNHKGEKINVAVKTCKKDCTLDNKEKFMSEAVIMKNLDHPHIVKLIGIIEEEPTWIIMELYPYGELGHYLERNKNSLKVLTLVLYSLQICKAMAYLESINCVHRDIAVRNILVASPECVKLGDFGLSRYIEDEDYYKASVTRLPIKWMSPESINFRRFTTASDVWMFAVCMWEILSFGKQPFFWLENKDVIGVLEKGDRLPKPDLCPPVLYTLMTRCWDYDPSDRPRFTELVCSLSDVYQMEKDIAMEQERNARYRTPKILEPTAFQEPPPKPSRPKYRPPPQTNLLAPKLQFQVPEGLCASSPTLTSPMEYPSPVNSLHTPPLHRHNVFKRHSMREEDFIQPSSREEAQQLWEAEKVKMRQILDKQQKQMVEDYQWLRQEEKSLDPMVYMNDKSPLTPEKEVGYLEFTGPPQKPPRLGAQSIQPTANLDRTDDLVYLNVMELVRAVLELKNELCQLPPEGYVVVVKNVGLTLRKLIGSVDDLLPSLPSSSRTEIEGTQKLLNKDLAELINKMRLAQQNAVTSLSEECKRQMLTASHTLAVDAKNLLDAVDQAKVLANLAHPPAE

As to `CN(C(=O)CN1CCOCC1)c1ccc2sc3c(-c4cccc5c(=O)cc(N6CC7CCC(C6)O7)oc45)cccc3c2c1` [NU5455], the inhibition at 1 µM turned out to be 4.2%.
